Assay in all cases: in vitro antibacterial activity (MIC), conventional agar dilution
Format in all cases: cell-based
Background: Agar dilution tests growth on a series of plates holding different concentrations.

The test system of one assay is P. stuartii CMX 640. As to conditions: Providencia stuartii, CMX640, brain-heart infusion agar, inoculum 10^4 /plate. The procedure:
(§1) The in vitro antibacterial activity is determined by conventional agar dilution procedures. A brain-heart infusion agar medium containing the drug is inoculated with a microbial culture cultivated on a brain-infusion broth (Difco 0037-01-6) at 36° C. for 18 hours and then observes for growth of the microorganism. The minimum concentration at which growth of the microorganism is inhibited is taken as MIC (ug/ml). The inoculum size is 10^4 /plate.

For assay [1], the system named is Ent. aerogenes ATCC 13048. The conditions noted are these: Klebsiella aerogenes, ATCC13048, brain-heart infusion agar, inoculum 10^4 /plate. The procedure:
as §1

The test system of another assay is Ent. faecium ATCC 8043. As to conditions: Enterococcus faecium, ATCC8043, brain-heart infusion agar, inoculum 10^4 /plate. The method, then:
as §1

Another assay concerns Stap. aureus ATCC-6538p. The conditions noted are these: Staphylococcus aureus, ATCC6538P, brain-heart infusion agar, inoculum 10^4 /plate. The procedure: as §1
The test system of a further assay is Strep. Pyogenes EES61. As to conditions: Streptococcus pyogenes, brain-heart infusion agar, inoculum 10^4 /plate. The procedure:
as §1

The subject of a further assay is Stap. epidermis 3519. As to conditions: brain-heart infusion agar, inoculum 10^4 /plate. The procedure: as §1
A further assay has as its system P. aeruginosa A5007. As to conditions: Pseudomonas aeruginosa, brain-heart infusion agar, inoculum 10^4 /plate. The method, then: as §1
The test system of the next assay is E. coli Juhl. The conditions noted are these: Escherichia coli, brain-heart infusion agar, inoculum 10^4 /plate. The procedure: as §1
A further assay has as its system Acinetobacter sp CMX 669. The conditions noted are these: CMX669, brain-heart infusion agar, inoculum 10^4 /plate. The procedure: as §1
For a further assay, the system named is K. pneumoniae ATCC 8045. The conditions noted are these: Klebsiella pneumoniae, ATCC8045, brain-heart infusion agar, inoculum 10^4 /plate. The method, then: as §1

Converted amounts (≈) assume the structure as drawn.

By MIC is commonly meant the smallest concentration in the dilution series that meets the test's criterion for growth inhibition. Higher therefore signals a need for much substance.

Take `CCn1c2cc(N3CCNCC3)c(F)cc2c(=O)c2c(=O)[nH]sc21` [46(m), 9-ethyl-6-fluoro-7-(1-piperazinyl)-2,3,4,9-tetrhydroisothiazolo[5,4-b]quinoline-3,4-dione]: the MIC amounted to 0.39 µg/mL (≈ 1.12 µM) in the assay with P. stuartii CMX 640; 0.2 µg/mL (≈ 0.574 µM) in assay [1]; 0.39 µg/mL (≈ 1.12 µM) against Ent. faecium ATCC 8043; 0.1 µg/mL (≈ 0.287 µM) in the assay on Stap. aureus ATCC-6538p; 0.2 µg/mL (≈ 0.574 µM) in the assay on Strep. Pyogenes EES61; 0.2 µg/mL (≈ 0.574 µM) in the assay with Stap. epidermis 3519. Moreover, the minimal inhibitory concentration (MIC) in the assay on P. aeruginosa A5007 amounted to 0.2 µg/mL (≈ 0.574 µM); in the assay with E. coli Juhl it was 0.1 µg/mL (≈ 0.287 µM); with Acinetobacter sp CMX 669 it was 0.39 µg/mL (≈ 1.12 µM); with K. pneumoniae ATCC 8045, 0.05 µg/mL (≈ 0.144 µM).

Regarding `O=c1[nH]sc2c1c(=O)c1cc(F)c(N3CCC(O)C3)cc1n2C1CC1` (stereo not shown) [46(ss), 9-cyclopropyl-6-fluoro-7-(3-hydroxy-1-pyrrolidinyl)-2,3,4,9-tetrahydroisothiazolo[5,4-b]quinoline-3,4-dione], the MIC with P. stuartii CMX 640 was 0.78 µg/mL (≈ 2.16 µM); in assay [1] it was 0.05 µg/mL (≈ 0.138 µM); with Ent. faecium ATCC 8043 it was 0.2 µg/mL (≈ 0.553 µM); in the assay with Stap. aureus ATCC-6538p it was 0.005 µg/mL (≈ 0.0138 µM); against Strep. Pyogenes EES61, 0.39 µg/mL (≈ 1.08 µM); in the assay on Stap. epidermis 3519, 0.01 µg/mL (≈ 0.0277 µM). Besides, the minimal inhibitory concentration (MIC) with P. aeruginosa A5007 was 0.39 µg/mL (≈ 1.08 µM); against E. coli Juhl, 0.02 µg/mL (≈ 0.0553 µM); against Acinetobacter sp CMX 669, 0.02 µg/mL (≈ 0.0553 µM); in the assay on K. pneumoniae ATCC 8045, not above 0.005 µg/mL.

`CCn1c2cc(N3CCNC(C)C3)c(F)cc2c(=O)c2c(=O)[nH]sc21` (stereo not shown) [46(ww), 9-ethyl-6-fluoro-7-(3-methyl-1-piperazinyl)-2,3,4,9-tetrahydroisothiazolo[5,4-b]quinoline-3,4-dione]: the MIC in the assay on P. stuartii CMX 640 was determined as 1.56 µg/mL (≈ 4.3 µM); in [1], 0.1 µg/mL (≈ 0.276 µM); with Ent. faecium ATCC 8043, 0.78 µg/mL (≈ 2.15 µM); in the assay on Stap. aureus ATCC-6538p, 0.05 µg/mL (≈ 0.138 µM); with Strep. Pyogenes EES61, 0.78 µg/mL (≈ 2.15 µM); against Stap. epidermis 3519, 0.1 µg/mL (≈ 0.276 µM). Moreover, the MIC against P. aeruginosa A5007 worked out at 0.39 µg/mL (≈ 1.08 µM); in the assay with E. coli Juhl, 0.1 µg/mL (≈ 0.276 µM); in the assay on Acinetobacter sp CMX 669, 0.2 µg/mL (≈ 0.552 µM); with K. pneumoniae ATCC 8045 it was 0.2 µg/mL (≈ 0.552 µM).

As for `CCn1c2s[nH]c(=O)c2c(=O)c2cc(F)c(N3CCNC(C)C3)c(F)c21` (stereo not shown) [46(xx), 9-ethyl-6,8-difluoro-7-(3-methyl-1-piperazinyl)-2,3,4,9-tetrahydroisothiazolo[5,4-b]quinoline-3,4-dione], the MIC was 3.1 µg/mL (≈ 8.15 µM) in the assay with P. stuartii CMX 640; 0.1 µg/mL (≈ 0.263 µM) in [1]; 0.78 µg/mL (≈ 2.05 µM) with Ent. faecium ATCC 8043; 0.1 µg/mL (≈ 0.263 µM) with Stap. aureus ATCC-6538p; 0.39 µg/mL (≈ 1.03 µM) in the assay on Strep. Pyogenes EES61; 0.2 µg/mL (≈ 0.526 µM) against Stap. epidermis 3519. Also, the MIC against P. aeruginosa A5007 was determined as 1.56 µg/mL (≈ 4.1 µM); against E. coli Juhl it was 0.05 µg/mL (≈ 0.131 µM); in the assay with Acinetobacter sp CMX 669 it was 0.1 µg/mL (≈ 0.263 µM); in the assay with K. pneumoniae ATCC 8045 it was 0.005 µg/mL (≈ 0.0131 µM).

Take `O=c1[nH]sc2c1c(=O)c1cc(F)c(N3CCNCC3)cc1n2-c1ccc(F)cc1` [46(yy), 9-p-fluorophenyl-6-fluoro-7-(1-piperozinyl)-2,3,4,9-tetrahydroisothiazolo[5,4-b]quinoline-3,4-dione]: the MIC amounted to 3.1 µg/mL (≈ 7.48 µM) against P. stuartii CMX 640; 0.1 µg/mL (≈ 0.241 µM) in [1]; 0.78 µg/mL (≈ 1.88 µM) with Ent. faecium ATCC 8043; 0.1 µg/mL (≈ 0.241 µM) in the assay on Stap. aureus ATCC-6538p; 0.78 µg/mL (≈ 1.88 µM) against Strep. Pyogenes EES61; 0.2 µg/mL (≈ 0.483 µM) with Stap. epidermis 3519. Moreover, the MIC in the assay with P. aeruginosa A5007 is 0.78 µg/mL (≈ 1.88 µM); in the assay with E. coli Juhl, 0.05 µg/mL (≈ 0.121 µM); in the assay with Acinetobacter sp CMX 669 it was 0.2 µg/mL (≈ 0.483 µM); against K. pneumoniae ATCC 8045, 0.02 µg/mL (≈ 0.0483 µM).

`O=c1[nH]sc2c1c(=O)c1cc(F)c(N3CCNCC3)cc1n2C1CC1` [46(zz), 9-cyclopropyl-6-fluoro-7-(1-piperazinyl)-2,3,4,9-tetrahydroisothiazolo[5,4-b]quinoline-3,4-dione]: the MIC is 0.2 µg/mL (≈ 0.555 µM) against P. stuartii CMX 640; 0.01 µg/mL (≈ 0.0277 µM) in [1]; 0.1 µg/mL (≈ 0.277 µM) in the assay with Ent. faecium ATCC 8043; 0.02 µg/mL (≈ 0.0555 µM) against Stap. aureus ATCC-6538p; 0.05 µg/mL (≈ 0.139 µM) in the assay with Strep. Pyogenes EES61; 0.05 µg/mL (≈ 0.139 µM) in the assay on Stap. epidermis 3519. For the same molecule, the MIC in the assay with P. aeruginosa A5007 came out at 0.05 µg/mL (≈ 0.139 µM); against E. coli Juhl, 0.005 µg/mL (≈ 0.0139 µM); against Acinetobacter sp CMX 669, 0.05 µg/mL (≈ 0.139 µM); against K. pneumoniae ATCC 8045, 0.005 µg/mL (≈ 0.0139 µM).

`Cl.NC1CCN(c2cc3c(cc2F)c(=O)c2c(=O)[nH]sc2n3C2CC2)C1` (stereo not shown) [47(b), 9-cyclopropyl-6-fluoro-7-(3-amino-1-pyrrolidinyl)-2,3,4,9-tetrahydroisothiazolo[5,4-b]quinoline-3,4-dione hydrochloride]: the MIC is 0.39 µg/mL with P. stuartii CMX 640; 0.01 µg/mL in assay [1]; 0.1 µg/mL against Ent. faecium ATCC 8043; 0.02 µg/mL with Stap. aureus ATCC-6538p; 0.05 µg/mL in the assay with Strep. Pyogenes EES61; 0.05 µg/mL against Stap. epidermis 3519. Besides, the MIC against P. aeruginosa A5007 came out at 0.2 µg/mL; against E. coli Juhl, 0.05 µg/mL; against Acinetobacter sp CMX 669, 0.05 µg/mL; with K. pneumoniae ATCC 8045 it was 0.005 µg/mL.

(Values after patent US4767762A, “Tricyclic quinoline and naphthyride antibacterials” (Abbott Laboratories, priority 1986, dated 1988).)
